# Results from patent publication US20110280807A1, “Methods and Models for Stress-Induced Analgesia” (UNIVERSITY OF GEORGIA RESEARCH FOUNDATION, INC., priority 2005, published 2011).
# Entries after “also recorded” stand apart in the source; their conditions may differ.
# Columns and labels:
# [1] = test system: rats subjected to brief, continuous footshock; experiment: Nonopioid stress-induced analgesia after brief continuous footshock, tail-flick test, systemic drug; assay type: in vivo, rat
# rats [2] = experiment: Tolerance studies: repeated agonist injections, then footshock stress analgesia; assay type: in vivo, rat
# rats [3] = experiment: Morphine antinociception in rats treated chronically with WIN55,212-2 or vehicle; assay type: in vivo, rat; settings: morphine 2.5 mg/kg s.c. on day 15
# rats [4] = experiment: Δ^9-THC sensitization study (antinociception after stress or no stress); assay type: in vivo, rat; settings: 10 mg/kg i.p. 24 h following stress or no stress; tail-flick 28-32 min after drug
# rats [5] = experiment: Tail-flick latencies in the absence of the stressor / basal nociceptive thresholds; assay type: in vivo, rat
# [6] = test system: dorsolateral periaqueductal gray; experiment: PAG injection studies: microinjection into dorsolateral periaqueductal gray, stress analgesia; assay type: in vivo, rat; settings: for basal nociceptive thresholds immediately prior to the stressor: after microinjection into dorsolateral periaqueductal gray
# vanilloid VR1 receptors = vanilloid VR1 receptors (Homo sapiens, UniProt Q8NER1); settings: cited from earlier work
# Sequence of vanilloid VR1 receptors (Q8NER1 whole entry): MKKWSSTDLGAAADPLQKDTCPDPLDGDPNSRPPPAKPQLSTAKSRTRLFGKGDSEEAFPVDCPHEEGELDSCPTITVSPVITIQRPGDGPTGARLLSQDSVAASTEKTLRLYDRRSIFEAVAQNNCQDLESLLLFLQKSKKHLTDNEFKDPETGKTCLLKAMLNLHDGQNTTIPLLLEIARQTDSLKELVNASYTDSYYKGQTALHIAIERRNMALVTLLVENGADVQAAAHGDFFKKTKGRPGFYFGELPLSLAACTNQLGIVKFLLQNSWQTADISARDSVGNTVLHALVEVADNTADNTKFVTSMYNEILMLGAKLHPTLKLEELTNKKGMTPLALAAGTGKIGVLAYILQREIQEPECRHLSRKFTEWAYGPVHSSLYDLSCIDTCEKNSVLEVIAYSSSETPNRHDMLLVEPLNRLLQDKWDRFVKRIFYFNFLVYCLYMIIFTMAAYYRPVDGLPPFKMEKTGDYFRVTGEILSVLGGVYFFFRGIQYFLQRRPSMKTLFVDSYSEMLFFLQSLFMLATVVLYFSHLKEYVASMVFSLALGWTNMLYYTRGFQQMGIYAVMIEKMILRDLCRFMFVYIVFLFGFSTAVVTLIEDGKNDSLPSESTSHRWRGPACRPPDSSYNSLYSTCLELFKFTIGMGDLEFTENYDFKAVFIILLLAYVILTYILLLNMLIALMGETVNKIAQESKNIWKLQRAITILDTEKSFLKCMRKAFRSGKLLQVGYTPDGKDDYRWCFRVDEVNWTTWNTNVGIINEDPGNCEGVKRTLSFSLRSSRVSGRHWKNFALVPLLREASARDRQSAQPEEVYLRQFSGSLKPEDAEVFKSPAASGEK
# [7] = 5 mg/kg i.p. 20 min prior to footshock
compound,measurement,setting,value
O=C1CC[C@@]2(O)[C@H]3Cc4ccc(O)c5c4[C@@]2(CCN3CC2CC2)[C@H]1O5 [naltrexone],effect on stress analgesia (tail-flick latencies after footshock),[1]; 14 mg/kg i.p. 20 min prior to footshock,not naltrexone or SR144528 blocks SIA; also recorded: neither the opioid antagonist naltrexone (14 mg/kg i.p.) nor the CB2 antagonist SR144528 altered stress analgesia
"Cc1c(C(=O)c2cccc3ccccc23)c2cccc3c2n1[C@H](CN1CCOCC1)CO3 [WIN55,212-2]",stress analgesia after acute cannabinoid,"rats [2]; 10 mg/kg i.p. on day 14, 24 h prior to footshock, vs vehicle",stress analgesia was increased
same,post-injection tail-flick latencies (tolerance to cannabinoid antinociception),"rats [2]; 10 mg/kg i.p. x 14 days, days 2, 7 and 14",higher on day 2 compared to day 7 or 14; also recorded: induced tolerance to cannabinoid antinociception
same,stress analgesia in cannabinoid-tolerant rats,"rats [2]; chronic 10 mg/kg i.p. x 14 days, footshock 24 h after last injection, vs vehicle or acute group",SIA was attenuated; also recorded: Stress analgesia was attenuated
CN1CC[C@]23c4c5ccc(O)c4O[C@H]2[C@@H](O)C=C[C@H]3[C@H]1C5 [morphine],post-morphine tail-flick latencies (tolerance to morphine antinociception),"rats [2]; 10 mg/kg s.c. x 7 days, days 1 and 7",higher on day 1 compared to day 7
same,stress analgesia in morphine-tolerant rats,"rats [2]; chronic morphine 10 mg/kg s.c. x 7 days vs vehicle, footshock 24 h after last injection",SIA did not differ; also recorded: No differences in stress analgesia
same,morphine analgesia in cannabinoid-tolerant group relative to controls,rats [3],modest enhancement in morphine analgesia
same,post-morphine tail-flick latencies Mean±SEM,"rats [3]; rats treated chronically with WIN55,212-2",6.2 ± 0.25 s
same,post-morphine tail-flick latencies Mean±SEM,rats [3]; rats treated chronically with vehicle,5.3 ± 0.21 s
"CCCCCc1cc(O)c2c(c1)OC(C)(C)[C@@H]1CCC(C)=C[C@@H]21 [Δ^9-THC, Δ^9-tetrahydrocannabinol]",effect on stress analgesia (tail-flick latencies after footshock),"[1]; 10 mg/kg i.p. 20 min prior to footshock (Δ^9-THC), vs vehicle",potentiated SIA relative to vehicle; also recorded: enhanced the magnitude and the duration of nonopioid stress analgesia
same,Δ^9-THC-induced antinociception in shocked vs non-shocked rats,rats [4],greater in rats subjected to footshock; also recorded: greater in rats subjected previously to the stressor
SR144528,effect on stress analgesia (tail-flick latencies after footshock),[1]; [7],not naltrexone or SR144528 blocks SIA; also recorded: neither the opioid antagonist naltrexone (14 mg/kg i.p.) nor the CB2 antagonist SR144528 altered stress analgesia
Oc1cc2c(cc1O)CN(C(=S)NCCc1ccc(Cl)cc1)CCC2 [capsazepine],effect on stress analgesia (tail-flick latencies after footshock),[1]; 10 mg/kg i.p. 20 min prior to footshock (capsazepine),failed to alter SIA; also recorded: did not alter stress analgesia
Cc1c(C(=O)NN2CCCCC2)nn(-c2ccc(Cl)cc2Cl)c1-c1ccc(Cl)cc1 [SR141716A],tail-flick latencies in the absence of the stressor,"rats [5]; no footshock, same times",failed to alter tail-flick latencies in the absence of footshock
same,effect on stress analgesia after site-specific administration,"[6]; 1 μg into dorsolateral periaqueductal gray, 5 min before footshock",suppressed; also recorded: blocked nonopioid stress analgesia
same,basal nociceptive thresholds immediately prior to the stressor,[6],absence of changes in basal nociceptive thresholds
same,inhibition of vanilloid VR1 receptors,vanilloid VR1 receptors,inhibits vanilloid VR1 receptors at high concentrations
same,effect on AA-5-HT potentiation of stress analgesia,[1]; 1 mg/kg i.p. ten min prior to AA-5-HT 10 mg/kg i.p.,blocked
same,effect on stress analgesia (tail-flick latencies after footshock),[1]; [7],blocks SIA; also recorded: markedly attenuated
"CCCCC/C=C\C/C=C\C/C=C\C/C=C\CCCC(=O)NCCc1c[nH]c2ccc(O)cc12 [AA-5-HT, arachidonoylserotonin]",effect on stress analgesia after site-specific administration,"[6]; 10 μg into dorsolateral periaqueductal gray, 35 min before footshock",enhanced SIA; also recorded: enhanced nonopioid stress analgesia
same,basal nociceptive thresholds immediately prior to the stressor,[6],absence of changes in basal nociceptive thresholds
same,effect on stress analgesia (tail-flick latencies after footshock),"[1]; 10 mg/kg i.p., footshock 65 min following administration (FAAH inhibition study)",Potentiation of SIA; also recorded: increased the magnitude and duration of cannabinoid stress analgesia
"CCCCC/C=C\C/C=C\C/C=C\C/C=C\CCCC(=O)NCCO [anandamide, arachidonylethanolamide]",binding to VR1,vanilloid VR1 receptors,binds to VR1 with low affinity
Cc1c(C(=O)NN2CCCCC2)nn(-c2ccc(Cl)cc2Cl)c1-c1ccc(I)cc1 [AM251],basal nociceptive thresholds,"rats [5]; 5 mg/kg i.p., before the stressor",absence of changes in basal nociceptive thresholds
same,effect on stress analgesia (tail-flick latencies after footshock),[1]; [7],suppressed SIA; also recorded: blocked this stress analgesia
